Laboratory results reported in patent publication US11697798B2, “Enhanced differentiation and maturation of pluripotent stem cell-derived myogenic cells” (Regents of the University of Minnesota, priority 2017, dated 2023).

Assays:
Type in all cases: cell-based, human
[1] = test system: hES (H9) and iPS (PLZ) cell-derived myogenic progenitors; test: RT-qPCR of myotubes differentiated from myogenic progenitors with gamma secretase inhibitors; conditions: for mRNA expression level of MHC3 compared to non-treated cells / mRNA expression level of Myogenin compared to non-treated cells: 10 uM, KOSR- or horse serum-based media, 5 days at 37° C.
Procedure: (§1) Human induced Pluripotent Stem Cells (hiPSC, PLZ) or Embryonic Stem Cells (hESC, H9) were transduced with the lentiviral constructs pSAM2-PAX7-ires-GFP and pFUGW-rtTA to generate doxycycline-inducible PAX7 (iPAX7) PS-cells as previously reported (Darabi, 2012). iPAX7-PS cells were cultured on matrigel-coated flasks using mTeSR1 medium (Stem Cell Technology). Cells were differentiated to myogenic progenitors as previously described (Darabi and Perlingeiro, 2016). Briefly, iPAX7-PS cells were detached with Accumax and 1×10^6 cells were plated in 6 cm non-adherent Petri dishes with mTeSR1 supplemented with 10 uM Y-27632 (ROCK inhibitor) and incubated at 37° C., 5% CO2 on a shaker at 60 RPM for 48 h. Then, medium was replaced with EB Myogenic (EBM) Medium supplemented with 10 uM […] (GSK3-β inhibitor) and 10 uM Y-27632. Three days later supplements were removed by changing to fresh medium. At day 7, EBs were plated on gelatin-coated flasks with EBM medium+10 ng/ml human basic FGF (bFGF) and three days later 1 ug/ml of doxycycline was added to the medium to induce PAX7 expression. Cells were harvested by trypsinization at day 14 and subsequently FACS sorted for GFP(+) expression. From this point, cells are considered as myogenic progenitors and cultured on gelatin-coated flasks using EBM medium+10 ng/ml bFGF+1 ug/ml Dox.
(§2) For terminal differentiation, myogenic progenitors at P3-P5 were plated on gelatin-coated dishes with EBM medium+10 ng/ml bFGF+1 ug/ml Dox. Upon reaching 100% confluency, medium was removed and replaced with knockout serum replacement (KOSR) or horse serum based terminal differentiation medium (TDM) supplemented with 10 uM DAPT, 10 uM BMS-906024.5 days after terminal differentiation, cells were fixed or collected for RNA analysis.
Differentiated myotubes (5d) were collected with TRIzol (Thermo Fisher Scientific) and RNA was purified using the Direct-zol RNA MiniPrep Plus (Zymo Research) following manufacturer's instructions. cDNA was obtained by RT-PCR using SuperScript VILO (Invitrogen) and qPCR was performed by using the Premix Ex Taq ROX plus (Takara) and TaMan probes (Thermo Fisher Scientific) specific to the genes of interest. qPCR was done with a QuantStudio 6 Flex Real-Time PCR System (Thermo Fisher Scientific). Data was normalized to GAPDH expression.

[2] = test system: hiPS cell-derived myogenic progenitors; test: Immunofluorescence staining for MHC and MYOG after terminal differentiation; conditions: for Myogenin (MYOG) immunofluorescence: clustering of myogenic nuclei / Myosin heavy chain (MHC) immunofluorescence: fusion, myotube thickness: KOSR-based differentiation medium; for Myosin heavy chain (MHC) immunofluorescence: fusion, myotube thickness: versus untreated control
Procedure: as §1, §2
After 5 days of terminal differentiation, cells were washed with PBS and fixed with 4% PFA/PBS for 10 min. Then, cells were permeabilized with 0.3% Triton X-100/PBS for 15 min and blocked with 3% BSA/PBS for 20 min. Cells were incubated with a primary antibody that recognizes all MHC isoforms (MF-20, Developmental Studies Hybridoma Bank) overnight at 4° C. The next day, cells were incubated with an Alexa-555 secondary antibody supplemented with DAPI for 1 h at RT. Cells were analyzed by epifluorescence microscopy.

[3] = test system: hiPS cell-derived myogenic progenitors; test: Western blot for MHC8 protein in terminally differentiated myotubes; conditions: horse serum-based differentiation medium, TUBB loading control
Procedure: as §1, with “Dox. […]” for “Dox.”

[4] = test system: myotubes derived from hESC-1, hiPSC-1 and hiPSC-2; test: Small molecule library screening (Tocriscreen Stem Cell Toolbox), MHC/DAPI area ratio; conditions: terminal differentiation
Procedure: After 24 hours, cells were switched to MM with 1 μg/ml Doxycyline and incubated at 37° C. for 2 days. 1/10th of EBs were then plated on gelatin coated T-75 flasks in MM with 1 μg/ml dox and 5 ng/ml human basic fibroblast growth factor (bFGF). After 4 days, cells were dissociated with 0.25% trypsin-EDTA, FACS sorted for GFP to derive myogenic progenitors which were plated at a density of 2 million/T-75 flask in MM with 1 μg/ml dox and 5 ng/ml bFGF. Once the cells reached 90% confluency, myogenic progenitors were dissociated with 0.25% trypsin-EDTA and passaged at a ratio of 1:6 to 1:8. To induce terminal differentiation, myogenic progenitors at P3-4 were plated at a density of 75,000 cells/24-well plate and allowed to grow confluent for 3 days. The medium was then switched to low nutrient differentiation medium (DM) consisting of DMEM-KO supplemented with 20% KOSR, 1% NEAA, 1% glutamax and 1% penicillin-streptomycin and incubated for five days to derive myotubes. Transplantation Experiment
Small molecule library screening was done using the tocriscreen stem cell toolbox kit (tocris) which consisted of 80 compounds. Myogenic progenitors at passage P3 or P4 were seeded at 12,000 cells/well in 96-well plates (triplicates) and incubated at 37° C. for 3 days to reach 100% confluency. After 3 days, the cells were switched to DM supplemented with 10 μM of the compounds from the library or with DMSO. Cells were incubated in this differentiation medium for 5 days to derive myotubes. Cells were then fixed with 4% PFA and stained for MHC and DAPI. The stained plates were imaged using cytation plate reader and 49 pictures were taken per well to cover most of the area. The images were stitched together and the ratio of area of MHC/DAPI staining was quantified using Image J and normalized to that of DMSO treated cells. […] Different combinations were made with selected compounds and their effect on differentiation was tested and quantified. […]

[5] = horse serum-based differentiation medium, hiPS

| SMILES | mRNA expression level of MHC3 compared to non-treated cells [1] | mRNA expression level of Myogenin compared to non-treated cells [1] | Myogenin (MYOG) immunofluorescence: clustering of myogenic nuclei [2] | Myosin heavy chain (MHC) immunofluorescence: fusion, myotube thickness [2] | expression level of CAPN3 compared to untreated control [1, 5] [fold] | expression level of embryonic myosin heavy chain (MHC3) [1, 5] | expression level of neonatal myosin heavy chain (MHC8) [1, 5] | efficiency of differentiation by MHC and MYOG immunofluorescence ([2]; horse serum-based (HS) differentiation medium) | neonatal Myosin Heavy Chain (MHC8) protein detection by Western blot [3] | myotube differentiation efficiency [4] |
| --- | --- | --- | --- | --- | --- | --- | --- | --- | --- | --- |
| CN1C(=O)[C@@H](NC(=O)[C@H](CCC(F)(F)F)[C@H](CCC(F)(F)F)C(N)=O)N=C(c2ccccc2)c2ccccc21 [BMS-906024] | increased mRNA expression levels | increased mRNA expression levels | induce clustering of the myogenic nuclei | improve the fusion of the nuclei to give rise to thick myotubes | – | – | – | – | – | – |
| CC(NC(=O)Cc1cc(F)cc(F)c1)C(=O)N[C@H](C(=O)OC(C)(C)C)c1ccccc1 (stereo partly shown) [DAPT] | increased mRNA expression levels | increased mRNA expression levels | induce clustering of the myogenic nuclei | improve the fusion of the nuclei to give rise to thick myotubes | 5 | enhances the expression levels | more than 200 fold | improves the efficiency of the differentiation | can be detected only in the presence of DAPT | promoted higher myotube differentiation efficiency |
| O=C(NOC[C@H](O)CO)c1ccc(F)c(F)c1Nc1ccc(I)cc1F [PD 0325901] | – | – | – | – | – | – | – | – | – | promoted higher myotube differentiation efficiency |
| NC(=O)c1ccc(-c2nc(-c3ccc4c(c3)OCO4)c(-c3ccccn3)[nH]2)cc1 [SB 431542] | – | – | – | – | – | – | – | – | – | promoted higher myotube differentiation efficiency |
